# Results as given in ChEMBL document CHEMBL1795291, “Computer- and structure-based lead design for epigenetic targets” (Bioorg Med Chem, 2011).
# Tests used:
# [1] = Inhibition of HDAC by fluorescence assay
# [2] = biological target: T1, NAD-dependent protein deacetylase sirtuin-2 (Homo sapiens, UniProt Q8IXJ6); test: Inhibition of human Sirt2
# T1 sequence (Q8IXJ6 whole entry): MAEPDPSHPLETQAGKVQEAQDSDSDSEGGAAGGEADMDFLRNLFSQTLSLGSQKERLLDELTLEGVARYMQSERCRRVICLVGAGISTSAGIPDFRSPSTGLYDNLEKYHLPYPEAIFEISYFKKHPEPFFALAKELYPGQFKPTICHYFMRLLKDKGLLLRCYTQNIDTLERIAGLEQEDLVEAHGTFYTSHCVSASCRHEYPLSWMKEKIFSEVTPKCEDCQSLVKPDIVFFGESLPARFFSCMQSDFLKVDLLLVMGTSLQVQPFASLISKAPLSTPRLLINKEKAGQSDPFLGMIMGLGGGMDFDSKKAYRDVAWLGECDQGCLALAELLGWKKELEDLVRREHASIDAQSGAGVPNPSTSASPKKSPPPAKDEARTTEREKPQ
# [3] = biological target: T2, Histone-lysine N-methyltransferase EHMT2 (Homo sapiens, UniProt Q96KQ7); test: Inhibition of lysine methyltransferase G9a
# T2 sequence (Q96KQ7 whole entry): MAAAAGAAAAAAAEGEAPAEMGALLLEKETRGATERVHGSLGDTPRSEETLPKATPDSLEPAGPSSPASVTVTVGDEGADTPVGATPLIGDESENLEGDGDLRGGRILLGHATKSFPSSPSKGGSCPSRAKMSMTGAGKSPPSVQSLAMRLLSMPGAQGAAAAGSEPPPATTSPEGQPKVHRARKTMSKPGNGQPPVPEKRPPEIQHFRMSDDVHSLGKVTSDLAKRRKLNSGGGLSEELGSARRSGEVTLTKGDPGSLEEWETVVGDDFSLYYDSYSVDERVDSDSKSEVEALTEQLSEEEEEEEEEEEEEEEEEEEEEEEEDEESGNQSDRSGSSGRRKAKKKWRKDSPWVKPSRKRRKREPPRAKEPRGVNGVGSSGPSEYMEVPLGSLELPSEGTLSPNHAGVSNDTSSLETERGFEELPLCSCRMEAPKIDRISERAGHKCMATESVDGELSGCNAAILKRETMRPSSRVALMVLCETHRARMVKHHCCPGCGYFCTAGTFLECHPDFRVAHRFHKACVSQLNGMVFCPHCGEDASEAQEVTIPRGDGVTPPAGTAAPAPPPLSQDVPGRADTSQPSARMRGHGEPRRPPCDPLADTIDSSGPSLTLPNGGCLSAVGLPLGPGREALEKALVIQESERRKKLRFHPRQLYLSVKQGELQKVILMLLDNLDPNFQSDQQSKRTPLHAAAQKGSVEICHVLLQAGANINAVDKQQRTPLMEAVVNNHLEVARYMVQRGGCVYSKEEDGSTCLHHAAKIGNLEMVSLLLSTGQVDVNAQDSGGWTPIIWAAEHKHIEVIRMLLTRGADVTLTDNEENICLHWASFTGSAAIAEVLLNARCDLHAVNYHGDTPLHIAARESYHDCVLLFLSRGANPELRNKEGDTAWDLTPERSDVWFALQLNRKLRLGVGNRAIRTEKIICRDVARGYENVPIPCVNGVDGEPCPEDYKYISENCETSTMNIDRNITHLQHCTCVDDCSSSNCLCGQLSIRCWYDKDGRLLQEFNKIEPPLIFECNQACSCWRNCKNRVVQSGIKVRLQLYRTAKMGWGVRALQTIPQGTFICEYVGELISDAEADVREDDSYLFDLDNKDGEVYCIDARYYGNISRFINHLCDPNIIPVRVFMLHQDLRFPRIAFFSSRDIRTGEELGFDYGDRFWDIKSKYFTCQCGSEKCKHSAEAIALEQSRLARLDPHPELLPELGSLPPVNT
smiles,measurement,setting,value
CCc1nnc(NS(=O)(=O)c2ccc(N/C=C3\Sc4ccccc4C3=O)cc2)s1,IC50,[1],4.3 µM
O=C1NC(=S)NC(=O)C1=Cc1ccc(-c2ccccc2)cc1,IC50,[2],8.7 µM
COc1ccc(C(=O)Oc2ccc(CCn3c(NC(=O)c4ccc(C(F)(F)F)cc4)nc4cc(C(=O)O)ccc43)cc2)cc1,IC50,[3],0.106 µM
